The subject of data set [1] is PKB Ser473 phosphorylation in Rat1-myr-HA-p110 beta cells. Briefly: Reverse protein array, PKB Ser473 phosphorylation in Rat1-myr-HA-p110 beta cells. The data set is classed as cell-based. Particulars: Rattus norvegicus, 0.5 h, 30 minutes compound incubation, read-out: p-PKB/IC50_beta.
In data set [2] the test system is PKB Ser473 phosphorylation in Rat1-myr-HA-p110 alpha cells. Briefly: Reverse protein array, PKB Ser473 phosphorylation in Rat1-myr-HA-p110 alpha cells. It counts as cell-based. The note with it: Rattus norvegicus, 0.5 h, 30 minutes compound incubation, read-out: p-PKB/IC50_alpha.
The nature of data set [3]: High-throughput equilibrium solubility at pH 6.8. It counts as physicochemical. The note with it: pH 6.8, aqueous buffer, thermodynamic from solid; read-out: HT-Eq Sol/pH 6.8. In a few lines: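 Following the procedure of Zhou et al. (2007), compound solubility was determined at pH 6.8.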

The structures appear in SMILES notation. Converted amounts (≈) assume the structure as drawn. Where only a bound is given, the exact number is not on record here.

As to `CCNc1cc(-c2ccc3ncc4c(c3c2)n(-c2ccc(N(C)CCOC)nc2C)c(=O)n4C)cnc1C` [Example 15.6, 8-(5-Ethylamino-6-methyl-pyridin-3-yl)-1-{6-[(2-methoxy-ethyl)-methyl-amino]-2-methyl-pyridin-3-yl}-3-methyl-1,3-dihydro-imidazo[4,5-c]quinolin-2-one], the results for the IC50 in data set [1] and in data set [2] were 7 nM and 4.8 nM, respectively. The solubility thermodynamic in data set [3] is 140 µg/mL (≈ 274 µM).
As to `COCCN(C)c1ccc(-n2c(=O)n(C)c3cnc4ccc(-c5cnc6c(ccn6C)c5)cc4c32)c(C)n1` [Example 15.7, 1-{6-[(2-Methoxy-ethyl)-methyl-amino]-2-methyl-pyridin-3-yl}-3-methyl-8-(1-methyl-1H-pyrrolo[2,3-b]pyridin-5-yl)-1,3-dihydro-imidazo[4,5-c]quinolin-2-one], the IC50 was 24.4 nM in data set [1] and 9.6 nM in data set [2]. Moreover, the solubility thermodynamic in data set [3] was determined as 4 µg/mL (≈ 7.88 µM).
In the case of `COCCN(C)c1ccc(-n2c(=O)n(C)c3cnc4ccc(-c5cncc(N)c5)cc4c32)c(C)n1` [Example 15.8, 8-(5-Amino-pyridin-3-yl)-1-{6-[(2-methoxy-ethyl)-methyl-amino]-2-methyl-pyridin-3-yl}-3-methyl-1,3-dihydro-imidazo[4,5-c]quinolin-2-one], the IC50 in data set [1] came out at 23.2 nM; in data set [2], 5.1 nM. Further, the solubility thermodynamic in data set [3] came to 56 µg/mL (≈ 119 µM).
Regarding `Cc1cc(F)ncc1-n1c(=O)n(C)c2cnc3ccc(-c4cnc(N)c(C(F)(F)F)c4)cc3c21` [Example 16.1, 8-(6-Amino-5-trifluoromethyl-pyridin-3-yl)-1-(6-fluoro-4-methyl-pyridin-3-yl)-3-methyl-1,3-dihydro-imidazo[4,5-c]quinolin-2-one], the IC50 in data set [1] was 65.6 nM; in data set [2], 13.3 nM. Further, the solubility thermodynamic in data set [3] was 3 µg/mL (≈ 6.4 µM).
Turning to `CCNc1cc(-c2ccc3ncc4c(c3c2)n(-c2cnc(F)cc2C)c(=O)n4C)cnc1C` [Example 16.2, 8-(5-Ethylamino-6-methyl-pyridin-3-yl)-1-(6-fluoro-4-methyl-pyridin-3-yl)-3-methyl-1,3-dihydro-imidazo[4,5-c]quinolin-2-one], the IC50 amounted to 78.3 nM in data set [1] and 21.8 nM in data set [2]. Besides, the solubility thermodynamic in data set [3] is 70 µg/mL (≈ 158 µM).
Consider `CNc1ncc(-c2ccc3ncc4c(c3c2)n(-c2cnc(F)cc2C)c(=O)n4C)cn1` [Example 16.3, 1-(6-Fluoro-4-methyl-pyridin-3-yl)-3-methyl-8-(2-methylamino-pyrimidin-5-yl)-1,3-dihydro-imidazo[4,5-c]quinolin-2-one], for which the IC50 in data set [1] was found to be 302 nM; in data set [2] it was 64.1 nM. In addition, the solubility thermodynamic in data set [3] was determined as 27 µg/mL (≈ 65 µM).
Consider `CNc1ccc(-c2ccc3ncc4c(c3c2)n(-c2cnc(F)cc2C)c(=O)n4C)cn1` [Example 16.4, 1-(6-Fluoro-4-methyl-pyridin-3-yl)-3-methyl-8-(6-methylamino-pyridin-3-yl)-1,3-dihydro-imidazo[4,5-c]quinolin-2-one], for which the IC50 in data set [1] is 141 nM; in data set [2], 30.7 nM. In addition, the solubility thermodynamic in data set [3] came to 55 µg/mL (≈ 133 µM).
With `CNc1cc(-c2ccc3ncc4c(c3c2)n(-c2ccc(N(C)C)nc2C)c(=O)n4C)cnc1C` [Example 19.2, 1-(6-Dimethylamino-2-methyl-pyridin-3-yl)-3-methyl-8-(6-methyl-5-methylamino-pyridin-3-yl)-1,3-dihydro-imidazo[4,5-c]quinolin-2-one], the IC50 in data set [1] and in data set [2] was less than 4.57 nM each time. For the same compound, the solubility thermodynamic in data set [3] came out at 34 µg/mL (≈ 75 µM).
With `CCOc1ccc(-c2ccc3ncc4c(c3c2)n(-c2ccc(N(C)C)nc2C)c(=O)n4C)cn1` [Example 19.3, 1-(6-Dimethylamino-2-methyl-pyridin-3-yl)-8-(6-ethoxy-pyridin-3-yl)-3-methyl-1,3-dihydro-imidazo[4,5-c]quinolin-2-one], the figures for the IC50 in data set [1] and in data set [2] were 14.2 nM and 6.8 nM, respectively. For the same compound, the solubility thermodynamic in data set [3] amounted to 5 µg/mL (≈ 11 µM).
`COc1cc(-c2ccc3ncc4c(c3c2)n(-c2ccc(N(C)C)nc2C)c(=O)n4C)cnc1CO` [Example 19.4, 1-(6-Dimethylamino-2-methyl-pyridin-3-yl)-8-(6-hydroxymethyl-5-methoxy-pyridin-3-yl)-3-methyl-1,3-dihydro-imidazo[4,5-c]quinolin-2-one]: the IC50 amounted to 40.2 nM in data set [1] and 6.8 nM in data set [2]. In addition, the solubility thermodynamic in data set [3] turned out to be 110 µg/mL (≈ 234 µM).
Take `Cc1nc(N(C)C)ccc1-n1c(=O)n(C)c2cnc3ccc(-c4cncc(N)c4)cc3c21` [Example 19.5, 8-(5-Amino-pyridin-3-yl)-1-(6-dimethylamino-2-methyl-pyridin-3-yl)-3-methyl-1,3-dihydro-imidazo[4,5-c]quinolin-2-one]: the values for the IC50 in data set [1] and in data set [2] were 11.2 nM and 6.9 nM, respectively. For the same compound, in data set [3], the solubility thermodynamic came out at 10 µg/mL (≈ 23.5 µM).
For the compound `COCC(=O)Nc1ccc(-n2c(=O)n(C)c3cnc4ccc(-c5cncc(N)c5)cc4c32)c(C)n1` [Example 20.1, N-{5-[8-(5-Amino-pyridin-3-yl)-3-methyl-2-oxo-2,3-dihydro-imidazo[4,5-c]quinolin-1-yl]-6-methyl-pyridin-2-yl}-2-methoxy-acetamide], the figures for the IC50 in data set [1] and in data set [2] were 170 nM and 287 nM, respectively. In addition, the solubility thermodynamic in data set [3] came out at 28 µg/mL (≈ 59.6 µM).
